Tests used:
Conditions in all cases: incubation time: 72 h
[1] = test system: HCC1143; assay: normalised response (% of control), CellTox Green; higher = less cell death (100 = DMSO, 0 = benzethonium chloride kill control)
Procedure, shortened: (§1)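 Plates were normalised with 0.1 % DMSO as 100 and a positive kill control as 0. Breast cancer cell lines in 20 µl suspension had been seeded into 384-well plates with compound at 5 concentrations in 10-fold steps over a compound-specific 10,000-fold range, incubated 72 h, and read for CellTox Green fluorescence (485/520 nm) followed by CellTiter-Glo luminescence. Each value is the normalised signal at a single concentration.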

[2] = test system: CAL-51; assay: as above
Procedure, shortened: as §1

[3] = test system: MCF-10A; assay: as above
Procedure, shortened: as §1

[4] = test system: MDA-MB-453; assay: as above
Procedure, shortened: as §1

[5] = test system: MDA-MB-231; assay: as above
Procedure, shortened: as §1

[6] = test system: CAL-148; assay: as above
Procedure, shortened: as §1

[7] = test system: BT-549; assay: as above
Procedure, shortened: as §1

[8] = test system: DU-4475; assay: as above
Procedure, shortened: as §1

[9] = test system: HDQ-P1; assay: as above
Procedure, shortened: as §1

[10] = test system: HCC1599; assay: as above
Procedure, shortened: as §1

[11] = test system: MFM-223; assay: as above
Procedure, shortened: as §1

[12] = test system: HCC1937; assay: as above
Procedure, shortened: as §1

[13] = test system: Hs578T; assay: as above
Procedure, shortened: as §1

[14] = test system: BT-474; assay: as above
Procedure, shortened: as §1

[15] = test system: MDA-MB-436; assay: as above
Procedure, shortened: as §1

[16] = test system: CAL-85-1; assay: as above
Procedure, shortened: as §1

[17] = test system: CAL-120; assay: as above
Procedure, shortened: as §1

[18] = test system: MDA-MB-468; assay: as above
Procedure, shortened: as §1

[19] = test system: HCC1143; assay: normalised response (% of control), CellTiter-Glo; higher = more viable cells (100 = DMSO, 0 = benzethonium chloride kill control)
Procedure, shortened: as §1

[20] = test system: CAL-51; assay: as above
Procedure, shortened: as §1

[21] = test system: MCF-10A; assay: as above
Procedure, shortened: as §1

[22] = test system: MDA-MB-453; assay: as above
Procedure, shortened: as §1

[23] = test system: MDA-MB-231; assay: as above
Procedure, shortened: as §1

[24] = test system: CAL-148; assay: as above
Procedure, shortened: as §1

[25] = test system: BT-549; assay: as above
Procedure, shortened: as §1

[26] = test system: DU-4475; assay: as above
Procedure, shortened: as §1

[27] = test system: HDQ-P1; assay: as above
Procedure, shortened: as §1

[28] = test system: HCC1599; assay: as above
Procedure, shortened: as §1

[29] = test system: MFM-223; assay: as above
Procedure, shortened: as §1

[30] = test system: HCC1937; assay: as above
Procedure, shortened: as §1

[31] = test system: Hs578T; assay: as above
Procedure, shortened: as §1

[32] = test system: BT-474; assay: as above
Procedure, shortened: as §1

[33] = test system: MDA-MB-436; assay: as above
Procedure, shortened: as §1

[34] = test system: SK-BR-3; assay: as above
Procedure, shortened: as §1

[35] = test system: CAL-85-1; assay: as above
Procedure, shortened: as §1

[36] = test system: CAL-120; assay: as above
Procedure, shortened: as §1

[37] = test system: MDA-MB-468; assay: as above
Procedure, shortened: as §1

SMILES | normalised response [1] [%] | normalised response [2] [%] | normalised response [3] [%] | normalised response [4] [%] | normalised response [5] [%] | normalised response [6] [%] | normalised response [7] [%] | normalised response [8] [%] | normalised response [9] [%] | normalised response [10] [%] | normalised response [11] [%] | normalised response [12] [%] | normalised response [13] [%] | normalised response [14] [%] | normalised response [15] [%] | normalised response [16] [%] | normalised response [17] [%] | normalised response [18] [%] | normalised response [19] [%] | normalised response [20] [%] | normalised response [21] [%] | normalised response [22] [%] | normalised response [23] [%] | normalised response [24] [%] | normalised response [25] [%] | normalised response [26] [%] | normalised response [27] [%] | normalised response [28] [%] | normalised response [29] [%] | normalised response [30] [%] | normalised response [31] [%] | normalised response [32] [%] | normalised response [33] [%] | normalised response [34] [%] | normalised response [35] [%] | normalised response [36] [%] | normalised response [37] [%]
COc1cc(F)c(F)c(Nc2ccc(I)cc2F)c1NS(=O)(=O)C1(C[C@H](O)CO)CC1 [Refametinib] (1000 nM) | 70.5 | 101 | 92.6 | 106 | 39.2 | 99.3 | 115 | 57.4 | 82.9 | 95.8 | 99.6 | 113 | 109 | 99.7 | 97.5 | 46.6 | 86.8 | 120 | 77.2 | 99.3 | 28.3 | 96.3 | 59.4 | 89.2 | 95.7 | 0.17 | 54.5 | 116 | 75.9 | 79.4 | 80.1 | 62.4 | 78.4 | 82.4 | 52.2 | 66.1 | 72.7
C[C@]1(O)C[C@@H](c2nc(-c3ccc4ccc(-c5ccccc5)nc4c3)c3c(N)nccn32)C1 [Linsitinib] (1000 nM) | 76.7 | 104 | 75 | 102 | 102 | 105 | 108 | 94.9 | 87.9 | 94.6 | 96.5 | 124 | 93.5 | 91 | 73.8 | 97.3 | 94.9 | 75.2 | 88.7 | 94 | 48.5 | 83.8 | 85.9 | 101 | 88.6 | 92.5 | 76.8 | 92 | 94.5 | 98.9 | 101 | 78 | 95.5 | 69.8 | 85.5 | 88 | 79.6
C[C@]12CC[C@@H]3c4ccc(OC(=O)N(CCCl)CCCl)cc4CC[C@H]3[C@@H]1CC[C@@H]2O [Estramustine] (1000 nM) | 103 | 84.7 | 55.8 | 97.3 | 94 | 46.8 | 98.6 | 96.5 | 70.6 | 90.2 | 93.1 | 67 |  | 89 | 93.3 | 107 | 93.9 | 182 | 93.5 | 80.7 | 92 | 93.5 | 94.4 | 78.6 | 104 | 88.5 | 103 | 111 | 86.2 | 95.5 | 95.9 | 96.1 | 98.5 | 87.4 | 93.3 | 99.9 | 87.1

Reference: the supplement of paper PMC4862054
